These results are taken from patent US10731221B2, “Diagnosing IDH1 related subgroups and treatment of cancer” (Dignity Health, priority 2009, dated 2020).

The test system of assay [1] is GBM, AKT SL (secondary-like) subtype. Kind of assay: Kaplan Meier survival of TCGA GBM patients receiving or not receiving BCNU and/or CCNU, by AKT subgroup. Format: in vivo, human. As to conditions: for survival advantage: Secondary-Like patients, CCNU/BCNU; for median survival: TCGA SL patients treated with BCNU or CCNU (vs. other treatments), p=0.03 after correcting for age, log rank; for sensitivity of patients in the SL subgroup: TCGA SL subgroup. The source says:
FIG. 5 depicts, in accordance with various embodiments of the invention, evidence that SL subtype (AKT subgroup 5) patients are sensitive to alkylating agents BCNU and CCNU. Kaplan Meier survival curves for TCGA patients receiving (solid line) or not receiving (dashed line) alkylating agent (BCNU and/or CCNU) by subgroup. p=0.03 after correcting for age (SL subtype; log rank). n=6 and 16 for SL patients receiving or not receiving BCNU/CCNU, respectively.
The discovery dataset (GBM195) consisted of 181 GBM (WHO grade IV astrocytoma; (159 primary and 22 recurrent) from 3 datasets, [4], [21] and 14 non-neoplastic samples from 2 sources: (1) six samples from patients undergoing temporal lobe epilepsy surgery and (2) eight samples from autopsy specimens of cerebral cortex from donors with no history of neurological disorders obtained from the National Neurological Research Brain Bank (Los Angeles, Calif.). Two datasets are in GEO (GSE4271, GSE4412) and the third has been submitted. Table 1 lists GEO ID's and clinical information for GBM195 tumors. Tissue collection and processing, pathological review, and microarray analysis for the discovery dataset (GBM195) has been described elsewhere ([3] Nigro et al. 2005, [4] Phillips et a. 2006, and [21] Freije et al. 2004, which are incorporated herein by reference in their entirety as though fully set forth.) The validation dataset consisted of 583 samples; 573 GBM (16 recurrent and 3 secondary) and 10 non-neoplastic samples from The Cancer Genome Atlas (TCGA). Samples were collected and processed as described ([5] Atlas TCG 2008, which is incorporated herein by reference in its entirety as though fully set forth.). IRB or Committee on Human Research approval was obtained for samples used in the discovery and validation datasets as described, [4], [10], [21].
Differences between one subgroup and the rest were assessed using the F test for […] and the likelihood ratio test for categorical variables. The Bonferroni method was applied to correct for multiple hypotheses. The inventors applied the Tukey HSD test to find pairwise differences between groups and correct for multiple comparisons. Survival differences between subgroups were assessed using the Chi-squared test. Age was added to build a multivariate Cox model. For survival comparisons of BCNU/CCNU treatment between subgroups there were not enough observations to correct for age. After deleting all observations younger than 45, survival was no longer related to age. Significance was then determined using log rank. The Pearson goodness-of-fit test was used to assess the null hypothesis that proportions of G-CIMP tumors by subgroup and recurrent tumors by subgroup are equal to the proportions for all tumors by subgroup. P-values for these tests were calculated by Monte Carlo simulation since the counts of tumors by subgroup were too small to apply the large sample chi-square approximation.
Since AKT influences response to chemotherapy, while not wishing to be bound by any theory, the inventors believe AKT subgroups are predictive markers. Indeed, TCGA SL patients treated with BCNU or CCNU had longer median survival than those receiving other treatments (FIG. 5; median survival=5.8 vs. 1.05 years; p=0.03 after correcting for age; log rank). […] This finding indicates patients in the SL subgroup are sensitive to BCNU and CCNU.

For assay [2], the system named is Glioblastoma AKT subgroups (Mesenchymal, Secondary-Like). The assay is described as follows: Kaplan Meier survival of TCGA patients receiving more vs. less temozolomide, by AKT subgroup. It counts as in vivo, human. The source says: FIG. 17 depicts, in accordance with various embodiments of the invention, evidence that Mesenchymal patients benefit from temozolomide. Kaplan Meier survival curves were plotted within each subgroup for TCGA patients receiving more (≥3 cycles; red) vs. less (<3 cycles; black) temozolomide. […] Median survival was 0.6 years greater for Mesenchymal patients treated with more temozolomide (1.8 years) vs. less temozolomide (1.2 years); p=0.01 log rank; not age adjusted.
We plotted Kaplan Meier survival curves for patients treated with more vs. less TMZ in each AKT subgroup (FIG. 17). Since most TCGA patients received some TMZ, it was not possible to plot survival curves for patients treated with and without the drug. Instead, we compared survival in 2 treatment arms, those receiving more (≥3) vs. less (<3) cycles.
There was a tendency for patients who received more TMZ to not have received a nitrosourea. […] Without wishing to be bound by any particular theory, this may underlie the worse survival of patients receiving more TMZ in the Secondary-Like subgroup.

With `O=NN(CCCl)C(=O)NCCCl` [BCNU, carmustine], in assay [1], the survival advantage is given as 4.5 year, the median survival is on record as 5.8 years and the “sensitivity of patients in the SL subgroup” value is “sensitive”.

For `O=NN(CCCl)C(=O)NC1CCCCC1` [CCNU, lomustine], in assay [1], the survival advantage is listed as 4.5 year, the median survival turned out to be 5.8 years and the “sensitivity of patients in the SL subgroup” value is “sensitive”.

Turning to `Cn1nnc2c(C(N)=O)ncn2c1=O` [temozolomide], the median survival in assay [2] (less temozolomide (<3 cycles)) stood at 1.2 years; in assay [2] (more temozolomide (≥3 cycles), p=0.01 log rank, not age adjusted), 1.8 years. In assay [2] (≥3 vs. <3 cycles), the “Median survival difference, more vs. less temozolomide” value amounted to 0.6 years.
